We go through 2 substances from patent publication US20240353411A1, “HE4 DETECTING PEPTIDE AND USE THEREOF” (Ajou University Industry-Academic Cooperation Foundation, priority 2022, published 2024).

No end group written: not given here.

The target in test [1] is T1, CA125 protein (Homo sapiens, UniProt Q8WXI7).
T1 construct: purchased R&D Systems Inc, MN, USA
T1 sequence (Q8WXI7 12660-12923 limits assumed): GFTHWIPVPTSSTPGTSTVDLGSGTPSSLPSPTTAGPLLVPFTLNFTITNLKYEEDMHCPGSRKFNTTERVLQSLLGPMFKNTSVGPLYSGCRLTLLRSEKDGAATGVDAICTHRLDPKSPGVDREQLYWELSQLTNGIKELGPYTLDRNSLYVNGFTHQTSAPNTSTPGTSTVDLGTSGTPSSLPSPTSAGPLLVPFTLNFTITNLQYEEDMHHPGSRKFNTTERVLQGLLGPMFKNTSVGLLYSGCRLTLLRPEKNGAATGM
Nature of the test: Binding affinity Kd, synthesized peptide vs fluorescently labeled protein, Monolith NT.115. The conditions noted are these: CA125 protein labeled RED-NHS, read-out: binding affinity Kd (dissociation constant). The protocol:
(§1) In order to evaluate the binding affinity and specificity of the discovered SEQ ID NO: 1 peptide to the CA125 protein, and the binding affinity and specificity of the SEQ ID NO: 2 peptide to HE4, ELISA assay was performed according to the manufacturer's instructions using CA125 protein (R&D Systems Inc, MN, USA), HE4 protein (Sinobiological, PA, USA), HRP-conjugated M13 antibody (Sinobiological, PA, USA), and TMB solution (Thermo Scientific, MA, USA). In addition, to measure the binding affinity Kd (dissociation constant), the discovered peptides of SEQ ID NO: 1 and SEQ ID NO: 2 were synthesized (Biostem, Suwon, Korea), CA125 protein and HE4 protein were each fluorescently labeled using Protein Labeling kit RED-NHS 2nd Generation (NanoTemper Technologies, Munich, Germany). Afterwards, the binding affinity between peptide and protein was measured using Monolith NT.115 (NanoTemper Technologies, Munich, Germany) according to the manufacturer's instructions.

Test [2] concerns the target T1, CA125 protein. As to the kind of experiment: ELISA assay of binding and specificity to CA125 protein. To be noted: HRP-conjugated M13 antibody, TMB, FIG. 1. The protocol:
as §1
A general note: An ELISA detects its analyte on a solid surface through an enzyme-linked reagent.

Test [3] concerns the target T2, HE4 protein (Homo sapiens, UniProt Q14508).
T2 construct: purchased Sinobiological, PA, USA
T2 sequence (Q14508 31-124): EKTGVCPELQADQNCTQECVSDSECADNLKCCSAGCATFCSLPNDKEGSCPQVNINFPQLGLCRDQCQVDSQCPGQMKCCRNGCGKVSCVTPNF
Nature of the test: Binding affinity Kd, synthesized peptide vs fluorescently labeled protein, Monolith NT.115. To be noted: HE4 protein labeled RED-NHS, read-out: binding affinity Kd (dissociation constant). The protocol:
as §1

The target in test [4] is T2, HE4 protein. As to the kind of experiment: ELISA assay of binding and specificity to HE4 protein. To be noted: HRP-conjugated M13 antibody, TMB, FIG. 1. The protocol: as §1

The term Kd denotes the concentration at which binding is half-saturated. Consider “HTHGAARVPDHR [SEQ ID NO: 1, HTHGAARVPDHR]”, for which, on CA125 protein [1], the Kd was 0.0114 ± 0.00423 µM. At CA125 protein [2], the “specific binding to the CA125 protein” value is recorded as “specifically bound”.

With LGSKPIN [SEQ ID NO: 2, LGSKPIN], the Kd on HE4 protein [3] turned out to be 15.3 ± 12 µM. For the same substance, at HE4 protein [4], the “specific binding to the HE4 protein” value is “specifically bound”.
